Measured values taken from patent publication US20200288710A1, “SUBSTITUTED SULPHONAMIDES FOR CONTROLLING ANIMAL PESTS” (BAYER CROPSCIENCE AKTIENGESELLSCHAFT, priority 2016, published 2020).

Tests used:
Format in all cases: in vivo
Myzus persicae [1] = test: Myzus persicae spray test (Chinese cabbage leaf discs); conditions: foliar, 120 h, 500 g/ha, after 5-6 days, read-out: efficacy
How it was run: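 Chinese cabbage leaf discs infested with all stages of green peach aphid were sprayed with compound formulated in acetone/DMF and emulsifier-containing water. Efficacy in % was scored after 5-6 days, with 100% meaning all aphids killed and 0% none killed.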

Myzus persicae [2] = test: Myzus persicae oral test; conditions: 120 h, 20 ppm, oral uptake, after 5 days, read-out: efficacy
How it was run: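 Compound dissolved in acetone, diluted in water, then mixed 50:150 μl with IPL41 insect medium (33%+15% sugar). Mixed-population green peach aphids feed through a parafilm seal on the solution; mortality scored as % efficacy after 5 days (100% = all killed).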

Meloidogyne incognita = Meloidogyne incognita test; conditions: 336 h, lettuce, after 14 days, read-out: nematicidal efficacy (formation of galls)
How it was run: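 Active compound in acetone, diluted with water, added to sand-filled vessels with M. incognita eggs/larvae and lettuce seeds. After 14 days, efficacy scored by root gall formation: 100% = no galls, 0% = galls equal to untreated control.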

Lucilia cuprina = Lucilia cuprina test; conditions: 48 h, L1 larvae, after 2 days, read-out: efficacy (kill in %)
How it was run: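 About 20 L1 larvae were held on minced horsemeat treated with compound, which was formulated in DMSO and diluted with water. Percent kill was scored after 2 days.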

Musca domestica = Musca domestica test; conditions: 48 h, adult houseflies, after 2 days, read-out: efficacy (kill in %)
Experimental: Musca domestica Test Solvent: dimethyl sulphoxide To produce a suitable preparation of active compound, 10 mg of active compound are mixed with 0.5 ml of dimethyl sulphoxide, and the concentrate is diluted with water to the desired concentration. Vessels containing a sponge treated with sugar solution and the active compound preparation of the desired concentration are populated with 10 adult houseflies (Musca domestica). After 2 days, the kill in % is determined. 100% means that all of the flies have been killed; 0% means that none of the flies have been killed.

Boophilus microplus = Boophilus microplus injection test; conditions: 20 μg/animal, injection into engorged adult female cattle ticks, after 7 days
Experimental: Boophilus microplus—Injection Test Solvent: dimethyl sulphoxide To produce a suitable preparation of active compound, 10 mg of active compound are mixed with 0.5 ml of solvent and the concentrate is diluted with solvent to the desired concentration. 1 μl of the active compound solution is injected into the abdomen of 5 engorged adult female cattle ticks (Boophilus microplus). The animals are transferred into dishes and kept in a climate-controlled room. Efficacy is assessed after 7 days by laying of fertile eggs. Eggs which are not externally visibly fertile are stored in a climate-controlled cabinet until the larvae hatch after about 42 days. An efficacy of 100% means that none of the ticks has laid any fertile eggs; 0% means that all the eggs are fertile.

SMILES: CCc1ccccc1S(=O)(=O)NC(=O)c1cn(C)c(-c2ccccc2Cl)n1 [Example 219]
- pest or weed control at 500 g/ha (Myzus persicae [1]): 100%
- pest or weed control at 20 ppm (Myzus persicae [2]): 100%
- pest or weed control at 20 ppm (Meloidogyne incognita): 90%
- pest or weed control at 100 ppm (Lucilia cuprina): 100%
- pest or weed control at 100 ppm (Musca domestica): 85%
- efficacy (laying of fertile eggs) (Boophilus microplus): 80%
